One compound from publication PMC6717386, “Aspulvinone O, a natural inhibitor of GOT1 suppresses pancreatic ductal adenocarcinoma cells growth by interfering glutamine metabolism” (Cell Communication and Signaling : CCS, 2019) can be followed below.

By Kd is commonly meant the equilibrium constant for the complex coming apart.

The target of one assay is T1, murine GOT1 (Mus musculus, UniProt P05201).
T1 construct: recombinant, C-terminal 6 His-tag
In words: microscale thermophoresis with labelled recombinant GOT1; supported by purified enzyme inhibition. Type of assay: binding. On the technique in general: MST reads how a fluorescent partner responds to local heating, with and without ligand.

Assay [1] addresses GOT1 (aspartate transaminase 1, glutamic-oxaloacetic transaminase 1) (Homo sapiens, UniProt P17174). Nature of the assay: microscale thermophoresis with labelled recombinant GOT1; supported by purified enzyme inhibition and kinetics, CETSA and DARTS. Type of assay: binding.

Chain of GOT1 (aspartate transaminase 1, glutamic-oxaloacetic transaminase 1) (P17174 2-413): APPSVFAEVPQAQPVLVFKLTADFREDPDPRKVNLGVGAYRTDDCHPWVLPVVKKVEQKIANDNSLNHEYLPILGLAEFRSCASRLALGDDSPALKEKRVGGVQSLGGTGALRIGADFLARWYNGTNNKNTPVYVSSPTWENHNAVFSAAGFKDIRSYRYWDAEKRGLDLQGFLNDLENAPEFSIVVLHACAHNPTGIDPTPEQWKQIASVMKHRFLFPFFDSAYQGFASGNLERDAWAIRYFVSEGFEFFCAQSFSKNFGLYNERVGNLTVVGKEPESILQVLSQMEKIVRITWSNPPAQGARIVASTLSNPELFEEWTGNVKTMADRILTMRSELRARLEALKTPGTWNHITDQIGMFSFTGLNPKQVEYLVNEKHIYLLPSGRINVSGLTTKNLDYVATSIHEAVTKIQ
T1 sequence (P05201 2-413): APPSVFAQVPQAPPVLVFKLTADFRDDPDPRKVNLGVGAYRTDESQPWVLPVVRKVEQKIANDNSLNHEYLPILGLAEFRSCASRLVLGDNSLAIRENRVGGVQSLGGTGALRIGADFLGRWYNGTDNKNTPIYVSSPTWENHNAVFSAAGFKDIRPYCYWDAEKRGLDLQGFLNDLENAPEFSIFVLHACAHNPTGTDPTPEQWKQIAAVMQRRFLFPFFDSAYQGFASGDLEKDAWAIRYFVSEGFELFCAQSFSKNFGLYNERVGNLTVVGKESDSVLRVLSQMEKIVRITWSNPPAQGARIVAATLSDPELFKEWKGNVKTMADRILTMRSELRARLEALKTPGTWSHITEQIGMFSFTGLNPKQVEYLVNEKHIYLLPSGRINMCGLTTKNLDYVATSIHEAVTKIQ

On to `CC(C)=CCc1cc(/C=C2\OC(=O)C(c3cc(CC=C(C)C)c(O)cc3O)=C2O)ccc1O` [AO, 3-[2,4-Dihydroxy-5-(3-methyl-2-buten-1-yl)phenyl]-4-hydroxy-5-[[4-hydroxy-3-(3-methyl-2-buten-1-yl)phenyl]methylene]-2(5H)-furanone], for which the dissociation constant Kd on murine GOT1 was 5.42 ± 1.36 µM; in assay [1], 3.32 ± 1.18 µM.
